Where “and” joins values, the source holds several entries; their conditions need not be identical. Equal entries are not always repeated. Structures can show the parent of a compound that is named as a salt. Where two headings read alike, the source gives them in different places.
Assays:
[1] = physiological release of oxytocin; cited from earlier work
in vivo = conditions: female, Beagle, dog
[2] = cited from earlier work
[3] = cited from earlier work; remark: listed apart in the source
[4] = 5 min after first vaginal dose, individual dogs
[5] = 10 min after first vaginal dose, individual dogs
[6] = 20 min after first vaginal dose, individual dogs
[7] = 30 min after first vaginal dose, individual dogs
[8] = 60 min after first vaginal dose, individual dogs
[9] = 135 min after first dose (second vaginal dose at 125 min), individual dogs
[10] = 155 min after first dose (second vaginal dose at 125 min), individual dogs
[11] = 185 min after first dose (second vaginal dose at 125 min), individual dogs
[12] = Human, Nicotine 2.0 mg, intrapulmonary, Russell
[13] = Human, Nicotine 4.0 mg, oral (gum), Russell
[14] = Human, dose 5.0, dermal (patch), Kennelly
[15] = Human, dose 5.0, oral (ext. rel.), Kennelly
[16] = Human, dose 5.0, oral, Kennelly
[17] = Human, dose 100, dermal (gel), Kennelly
[18] = Dog, 2.5 mg/24 h, vaginal (ring), WO2011163358
[19] = Dog, 6.0 mg/24 h, vaginal (ring), WO2011163358
[20] = Dog, 10 mg/24 h, oral, WO2011163358
[21] = 0.8 mg, Lorazepam 0.8 mg (1st), vaginal, present study
[22] = 0.8 mg, Lorazepam 0.8 mg (2nd), vaginal, present study
[23] = vaginal administration, Beagle dogs, two animals per compound
[24] = Human, Lorazepam 2.0 mg, intramuscular, Wermeling
[25] = Human, Lorazepam 2.0 mg, intravenous, Wermeling
[26] = Human, Lorazepam 2.0 mg, nasal, Wermeling
[27] = Human, Lorazepam 2.0 mg, oral, Blin
[28] = Dog, Lorazepam 0.8 mg (1st), vaginal, present study

For O=[N+]([O-])OCC(CO[N+](=O)[O-])O[N+](=O)[O-] [Nitroglycerin], the Plasma concentration [4] was “<LLOQ”, the Plasma concentration [5] was “<LLOQ” and the Plasma concentration [6] was “<LLOQ”. For the same compound, the Plasma concentration [7] was “<LLOQ”, the Plasma concentration [8] was “<LLOQ” and the Plasma concentration (120 min after first vaginal dose, individual dogs) was “<LLOQ”. For the same compound, the Plasma concentration [9] was “<LLOQ”, the Plasma concentration [10] was “<LLOQ” and the Plasma concentration [11] was “<LLOQ”. The Plasma concentration (245 min after first dose (second vaginal dose at 125 min), individual dogs) was “<LLOQ”, the Plasma concentration (Pre-dose, individual dogs) was “<LLOQ” and the “Parent compound concentration detectable in plasma” value (after vaginal administration of Nitroglycerin, Beagle dogs, listed as nitroglycerin) was “no detectable concentrations”.
For CC[C@H](C)[C@@H]1NC(=O)[C@H](Cc2ccc(O)cc2)NC(=O)[C@@H](N)CSSC[C@@H](C(=O)N2CCC[C@H]2C(=O)N[C@@H](CC(C)C)C(=O)NCC(N)=O)NC(=O)[C@H](CC(N)=O)NC(=O)[C@H](CCC(N)=O)NC1=O [oxytocin], the half life time [1] is given as “less than 6 minutes”.
CC(C)C[C@H](NC(=O)CNC(=O)[C@H](Cc1ccc(O)cc1)NC(=O)[C@H](CO)NC(=O)[C@H](Cc1c[nH]c2ccccc12)NC(=O)[C@H](Cc1cnc[nH]1)NC(=O)[C@@H]1CCC(=O)N1)C(=O)N[C@@H](CCCNC(=N)N)C(=O)N1CCC[C@H]1C(=O)NCC(N)=O [GnRH, Gonadotropin-releasing hormone] gave a Tmax (in vivo; 0.5 mg) of 10 min, a level at 20 min (in vivo; 50 uL, Plasma concentration) of 0.41 ng/mL and a level at 0.5 h (in vivo; 50 uL, Plasma concentration) of 0.2 ng/mL. It also gave a level at 2.25 h (in vivo; 50 uL, Plasma concentration) of 0.71 ng/mL, a level at 245 min (in vivo; 50 uL, Plasma concentration) of 0.19 ng/mL and a Tmax (in vivo) of at most 5 min. The Cmax ([2]; human, in vivo, inhaled or intranasal, 0.8 mg) was 0.35 ng/mL, the Cmax ([2]; human, in vivo) was 0.002 ng/mL and the Plasma concentration (dog, in vivo) was “<LLOQ”. The “Time until plasma levels fall below LLOQ / return to baseline” value (dog, in vivo) was at most 60 min and the Tmax (female, Beagle, dog, in vivo, 0.5 mg) was 5 min.
For CN1CCCC1c1cccnc1 (stereo not drawn) [Nicotine], the Tmax (in vivo; 2.5 mg) is given as 10 min, the Tmax (in vivo) is given as at most 5 min and the Cmax [2, 12] is given as 49 ng/mL. For the same compound, the Tmax [2, 12] was 2 min, the Cmax [2, 13] was 40 ng/mL and the Tmax [2, 13] was 30 min. For the same compound, the “Cmax / plasma concentration of one animal relative to the other animal” value (dog, in vivo) was “more than 4 times”, the “Time until plasma levels fall below LLOQ / return to baseline” value (female, Beagle, dog, in vivo) was at most 120 min and the Tmax (female, Beagle, dog, in vivo) was 10 min. The Tmax (female, Beagle, dog, in vivo, 2.5 mg) was 5 min, the Tmax ([3]; dog, in vivo, po, 64 mg) was 120 min and the Tmax ([3]; dog, in vivo, po, 148 mg) was 60 min.
For CCN(CC)CC#CCOC(=O)C(O)(c1ccccc1)C1CCCCC1 (stereo not drawn) [Oxybutynin HCl], the Tmax (in vivo) is listed as 10 min, the Cmax [2, 14] is listed as 4.2 ng/mL and the Tmax [2, 14] is listed as 1500 min. For the same compound, the Cmax [2, 15] was 2.1 ng/mL, the Tmax [2, 15] was 60 min and the Cmax [2, 16] was 10.0 ng/mL. The Tmax [2, 16] was 50 min, the Cmax [2, 17] was 3.2 ng/mL and the Tmax [2, 17] was 1500 min. The “Cmax / plasma concentration of one animal relative to the other animal” value (dog, in vivo) was “more than 3 times”, the “Elimination from the body” value (dog, in vivo) was “almost completely eliminated” and the Plasma concentration (dog, in vivo) was “<LLOQ”. The Cmax [3, 18] was 14.0 ng/mL, the Tmax [3, 18] was 90 min and the Cmax [3, 19] was 18.8 ng/mL. For the same compound, the Tmax [3, 19] was 90 min, the Cmax [3, 20] was 17.9 ng/mL and the Tmax [3, 20] was 180 min.
For O=C1Nc2ccc(Cl)cc2C(c2ccccc2Cl)=NC1O (stereo not drawn) [Lorazepam], the Cmax (in vivo; [21]) was 4 ng/mL, the Cmax (in vivo; [22]) was 7.8 ng/mL and the Tmax (in vivo; [21]) was 5 min. For the same compound, the Tmax (in vivo; [22]) was 10 min, the Tmax (in vivo; [23]) was 10 min and the Cmax [2, 24] was 22.6 ng/mL. For the same compound, the Tmax [2, 24] was 180 min, the Cmax [2, 25] was 47.6 ng/mL and the Tmax [2, 25] was 6 min. For the same compound, the Cmax [2, 26] was 33.4 ng/mL, the Tmax [2, 26] was 55 min and the Cmax [2, 27] was 33.4 ng/mL. The Tmax [2, 27] was 55 min, the Plasma concentration [4] was 1.55 ng/mL and 3.93 ng/mL and the Plasma concentration [5] was 2.65 ng/mL and 3.47 ng/mL. The Plasma concentration [6] was 2.23 ng/mL and 4.25 ng/mL, the Plasma concentration [7] was 1.49 ng/mL and 3.28 ng/mL and the Plasma concentration [8] was 0.38 ng/mL and 0.99 ng/mL. The Plasma concentration [9] was 7.65 ng/mL and 7.13 ng/mL, the Plasma concentration [10] was 4.96 ng/mL and 6.16 ng/mL and the Plasma concentration [11] was 1.89 ng/mL and 3.32 ng/mL. For the same compound, the Cmax [28] was 2.8 ng/mL, the Tmax [28] was 10 min and the Cmax (Dog, Lorazepam 0.8 mg (2nd), vaginal, present study) was 7.0 ng/mL. The Plasma concentration (Pre-dose, individual dogs) was “<LLOQ”, the “Time until plasma levels fall below LLOQ / return to baseline” value (after vaginal administration, Beagle dogs) was at most 120 min and the Tmax [23] was 20 min.
